From ChEMBL document CHEMBL2417488, “Inhibitory effects of p-dodecylaminophenol on the invasiveness of human fibrosarcoma cell line HT1080” (Bioorg Med Chem, 2013) come the findings set out here.

Data set [1] relates to HT-1080. Put plainly: Antiinvasive activity in human HT1080 cells at 30 uM. Type of data set: functional.
Data set [2] deals with HT-1080. Put plainly: Reduction of MMP9 mRNA level in human HT1080 cells at 1 uM after 24 hrs by RT-PCR analysis relative to control. Type of data set: functional.
Data set [3] deals with 72 kDa type IV collagenase (Homo sapiens) (UniProt P08253). Put plainly: Inhibition of MMP2 activity in human HT1080 cells at 1 uM after 24 hrs. As to conditions: HT-1080. It counts as cell-based.
The target in data set [4] is Matrix metalloproteinase-9 (Homo sapiens) (UniProt P14780). Put plainly: Inhibition of MMP9 activity in human HT1080 cells at 1 uM after 24 hrs. As to conditions: HT-1080. Type of data set: cell-based.
Data set [5] deals with HT-1080. Put plainly: Antiinvasive activity in human HT1080 cells assessed as reduction of cell number at 1 uM after 22 hrs by matrigel invasion assay. It counts as functional.
The subject of data set [6] is HT-1080. Put plainly: (§1) Toxicity in human HT1080 cells assessed as reduction of cell growth at 1 uM after 24 hrs. As to conditions: ht-1080, 24 h, 1 µM. It counts as cell-based.
In data set [7] the test system is HT-1080. Put plainly: Reduction of MMP2 mRNA level in human HT1080 cells at 1 uM after 24 hrs by RT-PCR analysis relative to control. Type of data set: functional, cell-based.
In data set [8] the test system is HT-1080. Put plainly: Induction of RECK mRNA expression in human HT1080 cells at 1 uM after 24 hrs by RT-PCR analysis relative to control. Type of data set: functional.
Data set [9] deals with HT-1080. Put plainly: Antiinvasive activity in human HT1080 cells at 50 uM. Type of data set: functional.
Data set [10] in a line: Cytotoxicity against human HuCCT1 cells. It counts as functional, cell-based. As to conditions: HuCCT-1.
In data set [11] the test system is HT-1080. Put plainly: Reduction of MMP2 level in human HT1080 cells after 24 to 72 hrs by gelatin zymography analysis. It counts as functional, cell-based.
The test system of data set [12] is HT-1080. Put plainly: Reduction of proMMP2 level in human HT1080 cells after 24 to 72 hrs by gelatin zymography analysis. It counts as functional, cell-based.
The subject of data set [13] is HT-1080. Put plainly: Reduction of proMMP9 level in human HT1080 cells after 24 to 72 hrs by gelatin zymography analysis. It counts as functional, cell-based.
Data set [14] deals with HT-1080. Put plainly: Reduction of MMP9 level in human HT1080 cells after 24 to 72 hrs by gelatin zymography analysis. It counts as functional, cell-based.
A short description of data set [15]: as §1. Type of data set: cell-based, HT-1080. As to conditions: HT1080 cells, read-out: Activity.
The test system of data set [16] is HT-1080. Put plainly: Induction of apoptosis in human HT1080 cells assessed as increase in caspase-3 activity at 1 uM relative to control. It counts as functional, cell-based.
The test system of data set [17] is HT-1080. Put plainly: Induction of apoptosis in human HT1080 cells assessed as increase in caspase-3 activity at 10 uM relative to control. Type of data set: functional.
For data set [18], the system named is HT-1080. Put plainly: Cell cycle arrest in human HT1080 cells assessed as accumulation at S phase after 72 hrs using propidium iodide staining by FACS analysis. Type of data set: functional, cell-based. On the technique in general: A flow cytometer gives signals particle by particle.
Data set [19] relates to HT-1080. Put plainly: Induction of apoptosis in human HT1080 cells assessed as increase in caspase-3 activity at 4 uM relative to control. It counts as functional.
The subject of data set [20] is HT-1080. Put plainly: Cell cycle arrest in human HT1080 cells assessed as accumulation at G2/M phase at 10 uM after 72 hrs using propidium iodide staining by FACS analysis relative to control. Type of data set: functional.
In data set [21] the test system is HT-1080. Put plainly: Cell cycle arrest in human HT1080 cells assessed as accumulation at G2/M phase at 4 uM after 72 hrs using propidium iodide staining by FACS analysis relative to control. Type of data set: functional.
For data set [22], the system named is HT-1080. Put plainly: Cell cycle arrest in human HT1080 cells assessed as accumulation at G2/M phase at 1 uM after 72 hrs using propidium iodide staining by FACS analysis relative to control. It counts as functional.
Data set [23] relates to HT-1080. Put plainly: Cell cycle arrest in human HT1080 cells assessed as accumulation at S phase at 10 uM after 72 hrs using propidium iodide staining by FACS analysis relative to control. It counts as functional.
The test system of data set [24] is HT-1080. Put plainly: Cell cycle arrest in human HT1080 cells assessed as accumulation at S phase at 4 uM after 72 hrs using propidium iodide staining by FACS analysis relative to control. Type of data set: functional.
For data set [25], the system named is HT-1080. Put plainly: Cell cycle arrest in human HT1080 cells assessed as accumulation at S phase at 1 uM after 72 hrs using propidium iodide staining by FACS analysis relative to control. Type of data set: functional.
Data set [26] concerns HT-1080. Put plainly: Cell cycle arrest in human HT1080 cells assessed as accumulation at G0/G1 phase at 10 uM after 72 hrs using propidium iodide staining by FACS analysis relative to control. Type of data set: functional.
Data set [27] has as its system HT-1080. Put plainly: Cell cycle arrest in human HT1080 cells assessed as accumulation at G0/G1 phase at 4 uM after 72 hrs using propidium iodide staining by FACS analysis relative to control. It counts as functional.
For data set [28], the system named is HT-1080. Put plainly: Cell cycle arrest in human HT1080 cells assessed as accumulation at G0/G1 phase at 1 uM after 72 hrs using propidium iodide staining by FACS analysis relative to control. Type of data set: functional.
In data set [29] the test system is HT-1080. Put plainly: Cytotoxicity against human HT1080 cells assessed as growth inhibition after 72 hrs by trypan blue dye exclusion assay. As to conditions: HT-1080, 72 h. Type of data set: functional, cell-based.
Data set [30] relates to HT-1080. Put plainly: Induction of RECK protein expression in human HT1080 cells at 1 uM after 24 hrs by electrophoresis analysis relative to control. Type of data set: functional.
For data set [31], the system named is HT-1080. Put plainly: Induction of RECK protein expression in human HT1080 cells at 4 uM after 24 hrs by electrophoresis analysis relative to control. It counts as functional.
Data set [32] relates to HT-1080. Put plainly: Induction of RECK protein expression in human HT1080 cells after 24 hrs by electrophoresis analysis relative to control. It counts as functional, cell-based.
The subject of data set [33] is HT-1080. Put plainly: Cytotoxicity against human HT1080 cells assessed as growth inhibition at 4 to 10 uM after 72 hrs by trypan blue dye exclusion assay relative to control. It counts as functional.
In data set [34] the test system is HT-1080. Put plainly: Cytotoxicity against human HT1080 cells. Type of data set: functional, cell-based.

Activity calls are given as the source filed them. The rule behind the calls is not given here.

Chain of 72 kDa type IV collagenase (Homo sapiens) (P08253 110-660 limits assumed): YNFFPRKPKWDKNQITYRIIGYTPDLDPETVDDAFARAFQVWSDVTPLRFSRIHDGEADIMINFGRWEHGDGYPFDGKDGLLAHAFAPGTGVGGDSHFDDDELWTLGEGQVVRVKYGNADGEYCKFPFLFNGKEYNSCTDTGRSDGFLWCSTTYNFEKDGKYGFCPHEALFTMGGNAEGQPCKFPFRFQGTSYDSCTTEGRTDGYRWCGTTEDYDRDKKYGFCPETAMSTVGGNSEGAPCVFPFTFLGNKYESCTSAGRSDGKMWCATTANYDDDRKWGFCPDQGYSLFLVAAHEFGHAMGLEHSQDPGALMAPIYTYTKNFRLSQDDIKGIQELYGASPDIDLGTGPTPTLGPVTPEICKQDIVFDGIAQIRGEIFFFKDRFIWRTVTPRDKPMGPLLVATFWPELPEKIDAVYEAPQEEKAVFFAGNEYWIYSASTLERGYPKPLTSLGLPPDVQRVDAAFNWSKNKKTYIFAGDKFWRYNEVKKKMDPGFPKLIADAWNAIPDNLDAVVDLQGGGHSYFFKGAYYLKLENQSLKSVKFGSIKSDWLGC
Chain of Matrix metalloproteinase-9 (Homo sapiens) (P14780 whole entry): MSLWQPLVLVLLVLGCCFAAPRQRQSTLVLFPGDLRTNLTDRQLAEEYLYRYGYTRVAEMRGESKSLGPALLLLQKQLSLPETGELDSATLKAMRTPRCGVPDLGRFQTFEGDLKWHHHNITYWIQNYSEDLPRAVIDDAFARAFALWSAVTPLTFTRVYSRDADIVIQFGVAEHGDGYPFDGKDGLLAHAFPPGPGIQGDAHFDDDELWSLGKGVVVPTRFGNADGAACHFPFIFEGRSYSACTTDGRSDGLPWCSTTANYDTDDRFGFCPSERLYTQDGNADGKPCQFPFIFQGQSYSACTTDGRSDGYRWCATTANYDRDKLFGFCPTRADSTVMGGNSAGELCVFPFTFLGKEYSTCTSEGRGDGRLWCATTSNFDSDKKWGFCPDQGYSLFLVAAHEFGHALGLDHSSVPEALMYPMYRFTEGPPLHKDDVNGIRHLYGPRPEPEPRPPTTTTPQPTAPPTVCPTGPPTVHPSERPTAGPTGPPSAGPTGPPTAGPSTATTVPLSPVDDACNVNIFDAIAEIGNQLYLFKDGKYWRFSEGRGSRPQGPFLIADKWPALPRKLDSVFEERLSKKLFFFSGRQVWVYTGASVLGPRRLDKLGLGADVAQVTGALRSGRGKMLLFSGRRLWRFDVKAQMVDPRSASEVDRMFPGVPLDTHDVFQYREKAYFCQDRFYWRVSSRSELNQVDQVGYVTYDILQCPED

On to `C[C@@H](N)c1ccc(C(=O)Nc2ccncc2)cc1.Cl`, for which, in the data set on HT-1080 [1], the Activity was determined as 50%.
With `CC1=C(/C=C/C(C)=C/C=C/C(C)=C/C(=O)O)C(C)(C)CCC1` [TRETINOIN], the result in the data set with HT-1080 [2], in the data set with HT-1080 [5], in the data set on HT-1080 [7] and in the data set with HT-1080 [8] was inactive. Further, the inhibition result in [3] and in data set [4] was “inactive” in each case. Further, the Activity result in the data set with HT-1080 [6] was “Non-toxic”.
On to `O=S(=O)(c1cccc2cnccc12)N1CCCNCC1` [FASUDIL], for which the Activity in the data set on HT-1080 [9] is reported as 26%.
On the same count and under the same terms, with `O=S(=O)(c1cccc2c(O)nccc12)N1CCCNCC1` [HYDROXYFASUDIL] the figure was 50%.
What is called IC50 is the concentration that gives 50% inhibition. On to `CCCCCCCCCCCCNc1ccc(O)cc1`, for which the IC50 in data set [10] was 2000 nM; in the data set with HT-1080 [11], 2400 nM; in the data set on HT-1080 [12], > 10000 nM; with HT-1080 [13] it was 900 nM; in the data set on HT-1080 [14], 700 nM; in the data set with HT-1080 [29] it was 1000 nM. In addition, the Activity was 60% with HT-1080 [2]; “Dose-dependent effect” in the data set on HT-1080 [11]; “Dose-dependent effect” with HT-1080 [12]; “Dose-dependent effect” with HT-1080 [13]; “Dose-dependent effect” in the data set with HT-1080 [14]; 80% with HT-1080 [5]. In addition, the Activity result with HT-1080 [18] is “Dose-dependent effect”; with HT-1080 [20] it was 30.3%; in the data set on HT-1080 [21], 30.4%; in the data set on HT-1080 [22] it was 28.2%; with HT-1080 [23], 19.1%; in the data set with HT-1080 [24] it was 11%. For the same molecule, the Activity in the data set with HT-1080 [25] amounted to 8.7%; in the data set with HT-1080 [26] it was 50.6%; with HT-1080 [27], 58.5%; with HT-1080 [28] it was 63.1%; in the data set with HT-1080 [8] it was 162%; in the data set on HT-1080 [30] it was 140%. The Activity with HT-1080 [31] was 175%; in the data set on HT-1080 [32] it was “Dose-dependent effect”. Besides, in data set [3], the inhibition entry is “inactive”. The molecule also had an inhibition in data set [4] of 50%. Further, the inhibition at 24 h, 1 µM in [15] stood at 8%. In addition, the result with HT-1080 [16] and in the data set on HT-1080 [7] was inactive. In addition, the figures for the “fold change (FC)” value in the data set with HT-1080 [17] and in the data set with HT-1080 [19] were 4.8 and 3.2, respectively. In addition, the “growth inhibition (GI)” value in the data set on HT-1080 [33] is 77%.
On to `O=C(CCCCCCSc1ccc2ccccc2c1)NO`, for which, in the data set with HT-1080 [34], half-maximal inhibition (IC50) required 3000 nM.
For `CC1=C(/C=C/C(C)=C/C=C/C(C)=C/C(=O)Nc2ccc(O)cc2)C(C)(C)CCC1` [FENRETINIDE], the result in the data set on HT-1080 [2], in the data set on HT-1080 [7] and in the data set on HT-1080 [8] was inactive. Further, the inhibition result in data set [3] and in data set [4] was “inactive” throughout. The Activity in the data set with HT-1080 [5] was determined as 20%. In addition, in data set [15], the inhibition at 24 h, 1 µM is 4%.
In turn, `COc1cc(C2Oc3cc([C@H]4Oc5cc(O)cc(O)c5C(=O)[C@@H]4O)ccc3OC2CO)ccc1O` (some centres undefined) [SILIBININ] showed an IC50 with HT-1080 [34] of 400000 nM.
On to `COC(=O)[C@H](CCSC)NC(=O)c1ccc(CNCc2c[nH]cn2)cc1-c1ccccc1C`, for which the IC50 in the data set on HT-1080 [34] was > 50000 nM.
